Measurements published in US8426589B2, “Process for production of quinazoline derivative” (Shionogi & Co., Ltd., priority 2008, dated 2013).

Experiment: Stability test of the crystalline form (sealed glass vial, HPLC)
Format: physicochemical
Method: The crystalline form of the compound (IV) monohydrate was sealed in a glass vial and allowed it to stand for 20 days to determine the quality change before and after the test. Under heating at 50° C. (for 21 hr) or 80° C. (for 9 hr) were also conducted.
The quality degradation was not seen for the crystalline form of the compound (IV) monohydrate after 20 days and neither at 50° C. nor 80° C.
HPLC condition: Column Unison UK-C18 3 μm;
Mobile phase: 0.1% trifuluoroacetic acid aq. in acetnitrile;
Column temperature: 30° C.
Detector: UV spectrophotometer (254 nm)

remaining ratio (HPLC, peak at Retention Time 10.2 min) (ca. 50° C., 15 h): 99.2 | remaining ratio (HPLC, peak at Retention Time 10.2 min) (ca. 50° C., 21 h): 99.1 | remaining ratio (HPLC, peak at Retention Time 10.2 min) (ca. 50° C., Control (before the test)): 99.4 | remaining ratio (HPLC, peak at Retention Time 10.2 min) (ca. 80° C., 3 h): 99.1 | remaining ratio (HPLC, peak at Retention Time 10.2 min) (ca. 80° C., 9 h): 99.1 | remaining ratio (HPLC, peak at Retention Time 10.2 min) (ca. 80° C., Control (before the test)): 99.1 | quality degradation (heating at 50° C. (for 21 hr)): not seen | quality degradation (heating at 80° C. (for 9 hr)): not seen | remaining ratio (HPLC, peak at Retention Time 10.2 min) (rt (ca. 22° C.), sealed in a glass vial, 20 days): 99.3 | remaining ratio (HPLC, peak at Retention Time 10.2 min) (rt (ca. 22° C.), sealed in a glass vial, Control (before the test)): 99.1 | quality degradation (sealed in a glass vial, after 20 days): not seen
Compound: CC#CC(=O)c1ccc2ncnc(Nc3ccc(OCc4cccc(F)c4)c(Cl)c3)c2c1 [compound (IV) monohydrate, 4-(3-chloro-4-(3-fluorobenzyloxy)phenylamino)-6-(1-oxo-2-butyn-1-yl)quinazoline]
